Laboratory results: ChEMBL document CHEMBL4219252, “Synthesis, antimycobacterial activity and influence on mycobacterial InhA and PknB of 12-membered cyclodepsipeptides” (Bioorg Med Chem, 2018)
≈ marks a conversion by molar mass, not a printed value. Calls of active or inactive are those of the source. No cut-off for these calls is given here.

What was measured:
[1] = test system: Sporobolomyces salmonicolor; test: Antifungal activity against Sporobolomyces salmonicolor 549 incubated overnight at 30 degC measured after 24 hrs by agar diffusion method; assay type: functional, organism-based
[2] = biological target: T1, Serine/threonine-protein kinase PknB (Mycobacterium tuberculosis) (UniProt P9WI81); test: Inhibition of Mycobacterium tuberculosis GST-tagged PknB expressed in Escherichia coli assessed as reduction in PknB autophosphorylation at 0.24 to 4.8 uM preincubated for 30 mins followed by [gamma32P]ATP addition measured after 30 mins by scintillation counting method
T1 sequence (whole entry): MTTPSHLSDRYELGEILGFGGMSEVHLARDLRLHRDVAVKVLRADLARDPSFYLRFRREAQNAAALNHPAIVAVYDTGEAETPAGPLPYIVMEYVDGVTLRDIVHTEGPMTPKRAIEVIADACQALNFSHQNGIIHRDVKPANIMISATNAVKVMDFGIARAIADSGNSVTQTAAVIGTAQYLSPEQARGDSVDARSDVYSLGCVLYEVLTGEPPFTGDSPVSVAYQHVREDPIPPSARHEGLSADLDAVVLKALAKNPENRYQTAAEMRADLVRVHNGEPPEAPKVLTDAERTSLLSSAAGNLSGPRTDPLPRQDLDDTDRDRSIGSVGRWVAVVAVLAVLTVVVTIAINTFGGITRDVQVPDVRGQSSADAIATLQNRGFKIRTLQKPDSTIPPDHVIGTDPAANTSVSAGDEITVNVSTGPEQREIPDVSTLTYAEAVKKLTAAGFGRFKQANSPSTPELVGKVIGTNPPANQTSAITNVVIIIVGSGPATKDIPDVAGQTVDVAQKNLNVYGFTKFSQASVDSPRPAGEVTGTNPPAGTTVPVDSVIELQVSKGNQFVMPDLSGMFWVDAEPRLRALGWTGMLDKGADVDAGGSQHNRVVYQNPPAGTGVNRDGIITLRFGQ

Bacillus spizizenii = test: Antibacterial activity against Bacillus subtilis ATCC 6633 incubated overnight at 37 degC measured after 24 hrs by agar diffusion method; assay type: functional, organism-based
Mycolicibacterium vaccae = test: Antimycobacterial activity against Mycobacterium vaccae IMET 10670 incubated overnight at 37 degC measured after 24 hrs by agar diffusion method; assay type: functional
[3] = test system: Mycolicibacterium smegmatis; test: Antimycobacterial activity against Mycobacterium smegmatis SG987 incubated overnight at 37 degC measured after 24 hrs by agar diffusion method; assay type: functional
Escherichia coli = test: Antibacterial activity against Escherichia coli SG458 incubated overnight at 37 degC measured after 24 hrs by agar diffusion method; assay type: functional, organism-based
[4] = test system: Mycobacterium tuberculosis; test: Antimycobacterial activity against Mycobacterium tuberculosis H37Rv ATCC 27294 by microplate alamar blue assay; assay type: functional
[5] = test system: Mycobacterium tuberculosis; test: Antimycobacterial activity against Mycobacterium tuberculosis H37Rv after 7 days by BacTiter-Glo microbial cell viability assay; assay type: functional
[6] = test system: Mycolicibacterium smegmatis; test: Antimycobacterial activity against Mycobacterium smegmatis SG987 after 48 hrs by resazurin microtiter assay; assay type: functional
[7] = biological target: T1, Serine/threonine-protein kinase PknB (Mycobacterium tuberculosis); test: Inhibition of Mycobacterium tuberculosis GST-tagged PknB expressed in Escherichia coli assessed as reduction in PknB autophosphorylation at 4.8 uM preincubated for 30 mins followed by [gamma32P]ATP addition measured after 30 mins by scintillation counting method relative to control
[8] = biological target: T1, Serine/threonine-protein kinase PknB (Mycobacterium tuberculosis); test: Induction of Mycobacterium tuberculosis GST-tagged PknB autophosphorylation expressed in Escherichia coli at 4.8 uM preincubated for 30 mins followed by [gamma32P]ATP addition measured after 30 mins by scintillation counting method relative to control
[9] = Antiproliferative activity against HUVEC after 72 hrs by CellTiter-Blue1 assay; assay type: cell-based; details: human
[10] = Antiproliferative activity against human K562 cells after 72 hrs by CellTiter-Blue1 assay; assay type: cell-based
[11] = Cytotoxicity against human HeLa cells assessed as reduction in cell viability after 72 hrs by CellTiter-Blue1 assay; assay type: cell-based
Mycolicibacterium aurum = test: Antimycobacterial activity against Mycobacterium aurum SB66 incubated overnight at 37 degC measured after 24 hrs by agar diffusion method; assay type: functional
[12] = Mycobacterium tuberculosis, H37Rv, 168 h, read-out: MIC
[13] = Mycolicibacterium smegmatis, SG987, 48 h, read-out: MIC

Compound | Activity [1] | Activity (Bacillus spizizenii) | Activity (Escherichia coli) | further results
COC(=O)CCC(Cc1ccccc1)NC(=O)[C@@H](NC(=O)OC(C)(C)C)[C@@H](C)OC(=O)[C@@H](C)O (stereo partly drawn) | inactive | inactive | inactive | inhibition [2]: inactive; Activity (Mycolicibacterium vaccae): inactive; Activity [3]: inactive
COC(=O)/C=C/C(=O)c1ccc(OC)cc1 | – | – | – | MIC [4]: 1.14 µM (≈ 0.251 µg/mL)
CC/C(C)=C1\OC(=O)[C@H](C)[C@@H](O)[C@H](Cc2cccnc2)NC(=O)[C@@H](NC(=O)c2ncccc2O)[C@@H](C)OC1=O | – | – | – | inhibition [2]: inactive
C[C@H]1OC(=O)COC(=O)CCC(Cc2ccccc2)NC(=O)[C@H]1NC(=O)OC(C)(C)C (stereo in doubt; form 1) [listing 1 of 2 here] | – | – | – | MIC [5]: 8 µM (≈ 3.48 µg/mL); MIC [6]: 28.8 µM (≈ 12.5 µg/mL); diameter of the inhibition zone (DIZ) (Mycolicibacterium vaccae): 20 - 26 mm; diameter of the inhibition zone (DIZ) [3]: 17 mm
CC[C@H](C)[C@@H]1NC(=O)C[C@H](CC(C)C)CNC(=O)[C@@H](NC(=O)c2ccccn2)[C@@H](C)OC1=O | inactive | inactive | inactive | Activity [5]: inactive; Activity [6]: inactive
C[C@H]1OC(=O)CCCNC(=O)[C@@H](NC(=O)c2ccccn2)[C@@H](C)OC1=O | inactive | inactive | inactive | –
C[C@@H](OCc1ccccc1)C(=O)O[C@H](C)[C@H](NC(=O)c1ncccc1F)C(=O)NCCCC(=O)OCc1ccccc1 | inactive | inactive | inactive | –
C[C@H]1OC(=O)c2ccccc2OC(=O)CCNC(=O)[C@H]1NC(=O)OC(C)(C)C | inactive | inactive | inactive | –
NNC(=O)c1ccncc1 [ISONIAZID] | – | – | – | MIC [5, 12]: 0.31 µM (≈ 0.0425 µg/mL); MIC [6, 13]: 29.2 µM (≈ 4 µg/mL)
C[C@H]1OC(=O)COC(=O)CCC(Cc2ccccc2)NC(=O)[C@H]1NC(=O)OC(C)(C)C (stereo in doubt; form 1) [listing 2 of 2 here] | inactive | inactive | inactive | inhibition [7]: 60%
C[C@H]1OC(=O)CCC(Cc2ccccc2)NC(=O)[C@@H](NC(=O)OC(C)(C)C)[C@@H](C)OC1=O (stereo in doubt; form 2) [listing 1 of 2 here] | inactive | inactive | inactive | inhibition [2]: inactive; Activity [8]: 60%; fold change (FC) [8]: 2
C[C@@H](OC(=O)COCc1ccccc1)[C@H](NC(=O)c1ccccn1)C(=O)NCCCC(=O)OCc1ccccc1 | inactive | inactive | inactive | –
C[C@H]1OC(=O)CCCNC(=O)[C@@H](NC(=O)c2ncccc2O)[C@@H](C)OC1=O | inactive | inactive | inactive | –
C[C@@H](OCc1ccccc1)C(=O)O[C@H](C)[C@H](NC(=O)c1ccccn1)C(=O)NCCCC(=O)OCc1ccccc1 | inactive | inactive | inactive | –
C[C@H]1OC(=O)COC(=O)CCCNC(=O)[C@H]1NC(=O)c1ccccn1 | inactive | inactive | inactive | –
C[C@H]1OC(=O)c2ccccc2OC(=O)CCNC(=O)[C@H]1NC(=O)c1ncccc1O | inactive | inactive | inactive | Activity [5]: inactive; Activity [6]: inactive
C[C@H]1OC(=O)COC(=O)CCC(Cc2ccccc2)NC(=O)[C@H]1NC(=O)OC(C)(C)C (stereo in doubt; form 2) [listing 1 of 2 here] | – | – | – | GI50 at 72 h [9]: 5 to 50 µg/mL (≈ 11.5 to 115 µM); MIC [5, 12]: 4 µM (≈ 1.74 µg/mL); MIC [6]: 7.2 µM (≈ 3.13 µg/mL); GI50 at 72 h [10]: 5 to 50 µg/mL (≈ 11.5 to 115 µM); diameter of the inhibition zone (DIZ) (Mycolicibacterium vaccae): 24 - 31 mm; CC50 at 72 h [11]: 5 to 50 µg/mL (≈ 11.5 to 115 µM); diameter of the inhibition zone (DIZ) [3]: 21 mm; diameter of the inhibition zone (DIZ) (Mycolicibacterium aurum): 0 mm
C[C@@H](OC(=O)CO)[C@H](NC(=O)OC(C)(C)C)C(=O)NC(CCC(=O)O)Cc1ccccc1 (stereo partly drawn) | – | – | – | Activity [5]: inactive; Activity [6]: inactive
C[C@H]1OC(=O)CCC(Cc2ccccc2)NC(=O)[C@@H](NC(=O)c2ncccc2O)[C@@H](C)OC1=O (stereo partly drawn) | inactive | inactive | inactive | GI50 at 72 h [9]: > 5 µg/mL; MIC [5, 12]: 8 µM (≈ 3.76 µg/mL); MIC [6, 13]: 13.7 µM (≈ 6.43 µg/mL); GI50 at 72 h [10]: > 5 µg/mL; diameter of the inhibition zone (DIZ) (Mycolicibacterium vaccae): 21 - 29 mm; CC50 at 72 h [11]: > 5 µg/mL; diameter of the inhibition zone (DIZ) [3]: 17 mm; diameter of the inhibition zone (DIZ) (Mycolicibacterium aurum): 0 mm; inhibition [7]: 35%
C[C@H]1OC(=O)CCC(Cc2ccccc2)NC(=O)[C@@H](NC(=O)OC(C)(C)C)[C@@H](C)OC1=O (stereo in doubt; form 2) [listing 2 of 2 here] | – | – | – | MIC [5, 12]: 125 µM (≈ 56.1 µg/mL); diameter of the inhibition zone (DIZ) (Mycolicibacterium vaccae): 0 mm; diameter of the inhibition zone (DIZ) [3]: 0 mm; diameter of the inhibition zone (DIZ) (Mycolicibacterium aurum): 0 mm
C[C@@H](O)C(=O)O[C@H](C)[C@H](NC(=O)OC(C)(C)C)C(=O)NC(CCC(=O)O)Cc1ccccc1 (stereo partly drawn) | – | – | – | Activity [5]: inactive; Activity [6]: inactive
C[C@H]1OC(=O)CCC(Cc2ccccc2)NC(=O)[C@@H](NC(=O)OC(C)(C)C)[C@@H](C)OC1=O (stereo in doubt; form 1) | inactive | inactive | inactive | –
C[C@@H](OC(=O)COCc1ccccc1)[C@H](NC(=O)c1ccccc1O)C(=O)NCCCC(=O)OCc1ccccc1 | inactive | inactive | inactive | –
C[C@@H](OCc1ccccc1)C(=O)O[C@H](C)[C@H](NC(=O)c1ncccc1O)C(=O)NCCCC(=O)OCc1ccccc1 | inactive | inactive | inactive | –
C[C@@H](OCc1ccccc1)C(=O)O[C@H](C)[C@H](NC(=O)c1ccccc1O)C(=O)NCCCC(=O)OCc1ccccc1 | inactive | inactive | inactive | –
C[C@H]1OC(=O)COC(=O)CCCNC(=O)[C@H]1NC(=O)c1ncccc1O | inactive | inactive | inactive | –
C[C@@H](OC(=O)COCc1ccccc1)[C@H](NC(=O)c1ncccc1F)C(=O)NCCCC(=O)OCc1ccccc1 | inactive | inactive | inactive | –
C[C@@H](OC(=O)COCc1ccccc1)[C@H](NC(=O)c1ncccc1O)C(=O)NCCCC(=O)OCc1ccccc1 | inactive | inactive | inactive | –
C[C@H]1OC(=O)COC(=O)CCC(Cc2ccccc2)NC(=O)[C@H]1NC(=O)OC(C)(C)C (stereo in doubt; form 2) [listing 2 of 2 here] | inactive | inactive | inactive | inhibition [7]: 60%
